Measured values from patent publication US10617721B2, “Methods for genetic modification of stem cells” (Ospedale San Raffaele S.R.L., priority 2013, dated 2020).

Columns and labels:
cord blood CD34^+ cells [1] = experiment: Lentiviral vector transduction of cord blood CD34+ cells with or without dmPGE2, VCN by qPCR (in vitro); assay type: cell-based, human
Protocol: CD34^+ cells from n=4 cord blood donors (Lonza) were thawed and put into culture in Stem span serum free expansion medium (SFEM) supplemented with 100 ng/mL SCF, 100 ng/mL FLT3L, 50 ng/mL TPO, 50 ng/mL IL6 for 18 h (pre-stimulation), in the presence or absence of 10 μM dmPGE2. After pre-stimulation, cells were incubated with 10^8 TU/mL of a lentiviral vector for 24 h. Cells were then cultured in vitro (n=5 replicates) for 14 days in IMDM+10% FCS before vector copy number (VCN) was measured by qPCR as described in Gentner, B. et al. (2009) Nat.

[2] = test system: G-CSF-mobilised CD34+ peripheral blood stem cells; experiment: Lentiviral vector transduction of G-CSF-mobilised CD34+ peripheral blood stem cells with or without dmPGE2 (in vitro); assay type: cell-based, human; conditions: pre-stimulated with dmPGE2, 18 h
Protocol: N=6 transductions of 3 mobilised peripheral blood donors. Cells were thawed, resuspended in serum-free, commercial culture medium (e.g. CellGro) at a density of 10^6 cells/mL in the presence of the following cytokines: 300 ng/mL SCF, 300 ng/mL FLT3L, 100 ng/mL TPO, 60 ng/mL IL-3, and prestimulated for 18 h, in the absence (control, Ctrl) or presence of dmPGE2. Transduction was performed with lentiviral vectors (3 different batches) at 10^8 TU/mL for 12-24 h. Vector copy number was assessed by qPCR after 14 days of in vitro culture in IMDM and 10% FCS. Relative VCN (normalised to the Control group) is shown.

human HSPCs = experiment: Timing of dmPGE2 stimulation and transducability of human HSPCs by lentiviral vectors; assay type: cell-based
Protocol: This experiment was carried out on 1 cord blood and 1 mobilised peripheral blood donor, the relative VCN is shown (normalised to its respective control).

cord blood CD34^+ cells [3] = experiment: VCN and engraftment after xenotransplantation of dmPGE2-stimulated, LV-transduced cord blood CD34+ cells into NSG mice; assay type: in vivo
Protocol: Cord blood CD34^+ cells were thawed and placed in culture (10^6 cells/mL) in Stem span serum free medium (SFEM) supplemented with 100 ng/mL SCF, 100 ng/mL FLT3L, 50 ng/mL TPO, 50 ng/mL IL-6 for 18 h (pre-stimulation) and subsequently transduced with a lentiviral vector at 10^8 TU/mL for 24 h. Cells were injected into sublethally irradiated, 8 week old NSG mice (1.5-3×10^5 cells per mouse), and vector copy number (VCN) was analysed in the pooled blood or bone marrow of each group of mice at the indicated time-points using primers specific for human cells. 3 replicate experiments are shown. Left graph: Cells were transduced with a PGK.TRAIL LV, and 10 μM dmPGE2 (dmPGE2 group, n=5 mice) or DMSO (Ctrl group, n=5 mice) was added directly after thawing (t=−16 h with respect to vector addition). Middle graph: Cells were transduced with a PGK.TRAIL LV, and 10 μM dmPGE2 (dmPGE2 group n=5) or DMSO (Ctrl group; n=8) was added 120 min before vector addition (t=−2 h). […], and 10 μM dmPGE2 (dmPGE2 group n=5) or DMSO (Ctrl group; n=5) was added 120 min before vector addition (t=−2 h). In all three experiments, the benefit in transduction observed in vitro was stably maintained long-term, up to 18 weeks after xenotransplantation.

[4] = test system: CD34^+ cells from G-CSF mobilised peripheral blood (mPB); experiment: VCN in long-term repopulating cells after xenotransplantation of mPB CD34+ cells transduced by protocols P0-P4; assay type: in vivo, NSG mice
Protocol: CD34^+ cells from G-CSF mobilised peripheral blood (mPB) were thawed and placed in culture (10^6 cells/mL) in CellGro medium supplemented with SCF (300 ng/mL), FLT3L (300 ng/mL), TPO (100 ng/mL) and IL-3 (60 ng/mL). Cells were transduced with third generation lentiviral vectors coding for gp91^phox (vectors suitable for the gene therapy of chronic granulomatous disease) at a dose of 10^8 TU/mL. The different protocols used for ex vivo transduction of mPB CD34+ cells are illustrated in (E) and differ in terms of the presence (P1, P2, P3) or absence (P0, P4) of dmPGE2, the timing of dmPGE2 addition (after thawing: P1, P2; 120 min before transduction: P3) and the duration of culture (24 h: P2, P4 versus 44 h: P0, P1, P3).
(F) 10×10^6 CD34^+ mPB cells from donor 1 were thawed, divided into 4 equal parts and transduced with the SP146/gp91.cogp91^phox. 126T LV from an industry-grade production (Molmed Spa) according to P0, P1, P2 or P3. The outgrowth of 5×10^5 cells put into culture at time zero was injected per mouse (actual numbers: P0 3.66×10^5 per mouse; P1: 4.66×10^5 per mouse; P2: 3.0×10^5 per mouse; P3: 4.86×10^5 per mouse). Mice were euthanised at 20 weeks post transplantation. BM was flushed and pooled from the mice belonging to the same group (P0, P1, P2: n=5 per group; P3: n=3 per group) and depleted for mouse cells. Enriched human cells were then subjected to vector copy number (VCN) analysis using primers specific for human cells (5 technical replicates).
A replicate experiment was performed using mPB CD34^+ cells from a second donor (G). 15×10^6 CD34^+ mPB cells were thawed, divided into 4 equal parts and transduced with the SP146/gp91.gp91^phoxTGT.126T LV (a vector suitable for CGD gene therapy) coming from a lab-grade production according to protocols P0, P1 (44 h−/+dmPGE2) or P4, P2 (24 h−/+dmPGE2). The outgrowth of 9×10^5 cells put into culture at time zero was injected per mouse (actual numbers: P0 10×10^5 per mouse; P1: 8.2×10^5 per mouse; P4: 4.5×10^5 per mouse; P2: 5.3×10^5 per mouse). VCN was analysed on BM cells from each single mouse 13 weeks after transplantation using a qPCR assay specific for human cells.

[5] = test system: CD34^+ cells from adult bone marrow; experiment: Lentiviral vector transduction of adult bone marrow CD34+, CD34+CD38- and CD34+CD38+ cells with or without dmPGE2; assay type: cell-based, human; conditions: CD34^+ or CD34^+CD38^− HSPC from adult bone marrow after dmPGE2 treatment (10 μM)
Protocol: The experiments were carried out as follows: CD34^+ cells from N=3 bone marrow donors (Lonza) were thawed and put into culture in Stem span serum free expansion medium (SFEM) under the following conditions: pre-stimulation in 300 ng/mL SCF, 300 ng/mL FLT3L, 100 ng/mL TPO, 60 ng/mL IL3 for 18 h. Cells were then divided into 3 groups: bulk CD34^+, CD34^+CD38^−, CD34^+CD38^+ (FACS-sorted on a MoFlow cytometer after marking with CD38-APC antibody from BD Bioscience). We then added dmPGE2 (10 μM) or DMSO to the cultures, and pre-stimulated the cells for another 16 h before they were transduced with a GFP-expressing lentiviral vector (LV.PGK.GFP) at 10^8 TU/mL. In vitro culture assays were performed, either as liquid culture for 14 days in IMDM+10% FCS (left) or colony forming cell (CFC) assay (right; plated 800 cells/mL methocult, analysed colony outgrowth after 14 d). Vector copy number was assessed by qPCR as described in Gentner B et al. Nat. Methods 2009; 6:63-66.

CCCCC(C)(C)[C@H](O)/C=C/[C@H]1[C@H](O)CC(=O)[C@@H]1C/C=C\CCCC(=O)O [dmPGE2, 16,16-dimethyl prostaglandin E2]
increase in gene transfer (VCN) (cord blood CD34^+ cells [1]; 10 μM dmPGE2 during 18 h pre-stimulation, LV 10^8 TU/mL 24 h, VCN after 14 days culture): 50% | increased gene transfer efficiency (cord blood CD34^+ cells [1]; CD34^+ or CD34^+CD38^− HSPC from cord blood after dmPGE2 treatment): 1.5 fold | transduction by lentiviral vectors [2]: more efficient transduction | increase in VCN (human HSPCs; dmPGE2 added 2 h before LV exposure (t=−2 h), 1 cord blood and 1 mobilised peripheral blood donor): 100% | VCN increase (human HSPCs; dmPGE2 added at the time of thawing (t=−16 h)): ~50% | time over which benefit in transduction was stably maintained after xenotransplantation (cord blood CD34^+ cells [3]; 10 μM dmPGE2 at t=−16 h or t=−2 h, three experiments): up to 18 weeks | engraftment levels (cord blood CD34^+ cells [3]; NSG mice, dmPGE2-treated cells): not negatively affected | time over which difference in VCN was maintained after transplantation into NSG mice (cord blood CD34^+ cells [3]; after transplantation of dmPGE2-treated cells): more than 4 months | sustained gain in transduction efficiency in long-term repopulating cells ([4]; P1 condition (dmPGE2 after thawing, 44 h culture), donor 2, BM 13 weeks after transplantation): did not result in a sustained gain in transduction efficiency | transduction-promoting effect in long-term repopulating cells ([4]; P2 (24 h culture with dmPGE2), donor 2, BM 13 weeks after transplantation): increased transduction well above levels achieved by a 44 h standard protocol | increase in VCN into long-term repopulating cells ([4]; P2 condition (dmPGE2 after thawing, 24 h culture), donor 1, BM 20 weeks post transplantation): ~50% | increase in VCN, P3 protocol ([4]; P3 (dmPGE2 120 min before transduction, 44 h culture), donor 1, BM 20 weeks): not statistically significant | increased gene transfer efficiency [5]: 1.5 fold
